Drawing on PubChem BioAssay (NCI), this text covers TGI for 15 molecules.

Test systems include OVCAR-8 ovarian; OVCAR-3 ovarian; 786-0 renal; MALME-3M melanoma; T-47D breast; TK-10 renal; COLO 205 colon; DU-145 prostate; SK-MEL-2 melanoma; SK-MEL-5 melanoma; UACC-62 melanoma; UO-31 renal; MDA-N; K-562 leukemia; NCI-H226 lung; HL-60(TB) leukemia.
Holding throughout (assay): inhibition of tumour cell growth, NCI panel, 48 h

SMILES strings stand for the structures.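 In this assay, cells in 96-well plates receive the compound at five concentrations for 48 hours. Endpoints are linearly interpolated between the surrounding concentrations. The concentration for full growth arrest is given as TGI.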 Some results are limits rather than exact numbers.

Consider `COC(=O)C1C2C=CC(C2)N1S(=O)(=O)c1ccccc1` (centres undefined), for which the TGI in the test with OVCAR-8 ovarian, with OVCAR-3 ovarian, in the test with 786-0 renal, with MALME-3M melanoma, in the test with T-47D breast and with TK-10 renal was over 100 µM in each case. Also, the TGI in the test on COLO 205 colon, with DU-145 prostate, in the test with SK-MEL-2 melanoma, in the test with SK-MEL-5 melanoma, in the test on UACC-62 melanoma and in the test with UO-31 renal was over 100 µM in each case. Moreover, the TGI in the test on MDA-N and in the test on K-562 leukemia was over 100 µM each time.
Consider `Cc1c[nH]c(C(=O)O)c1-c1ccc2c(-c3ccccc3)nc3ccccc3n12`, for which the TGI with OVCAR-8 ovarian was over 100 µM; with OVCAR-3 ovarian, 37.4 µM; with 786-0 renal, over 100 µM; with T-47D breast it was over 100 µM; with TK-10 renal it was over 100 µM; in the test with COLO 205 colon, over 100 µM. Besides, the TGI is over 100 µM in the test with DU-145 prostate; 55.1 µM with SK-MEL-2 melanoma; over 100 µM in the test on SK-MEL-5 melanoma; 42.5 µM with UACC-62 melanoma; 57.8 µM with NCI-H226 lung; over 100 µM with UO-31 renal. Further, the values for the TGI with MDA-N and in the test on K-562 leukemia were 48.4 µM and over 100 µM, respectively.
For the molecule `C=C1CC(Cn2cc(C)c(=O)[nH]c2=O)(c2ccc(-c3ccccc3)cc2)OC1=O` (centres undefined), the TGI in the test with OVCAR-8 ovarian came to 4.98 µM; in the test with OVCAR-3 ovarian it was 1.66 µM; with 786-0 renal, 2.22 µM; in the test with MALME-3M melanoma, 6.81 µM; in the test on T-47D breast, 5.51 µM; with TK-10 renal, 2.76 µM. Also, the TGI worked out at 2.89 µM with COLO 205 colon; 6.42 µM with DU-145 prostate; 4.19 µM with SK-MEL-2 melanoma; 2.56 µM with SK-MEL-5 melanoma; 3.77 µM with UACC-62 melanoma; 35.5 µM in the test with NCI-H226 lung. In addition, the TGI with UO-31 renal was determined as 11.5 µM; with MDA-N, 2.75 µM; in the test with K-562 leukemia it was 2.3 µM.
`O=C1c2ccccc2C(=O)N1CCCCCCNOCCCN1C(=O)c2ccccc2C1=O`: the TGI with OVCAR-8 ovarian was over 100 µM; with OVCAR-3 ovarian, over 100 µM; in the test with 786-0 renal, over 100 µM; with MALME-3M melanoma, over 100 µM; in the test on T-47D breast, 65 µM; with TK-10 renal, over 100 µM. Besides, the TGI in the test on COLO 205 colon is over 100 µM; in the test on DU-145 prostate, over 100 µM; with SK-MEL-2 melanoma, 47.8 µM; in the test with SK-MEL-5 melanoma, 30.8 µM; in the test with UACC-62 melanoma it was 50.3 µM; in the test with NCI-H226 lung, over 100 µM. In addition, the TGI was over 100 µM in the test on UO-31 renal, over 100 µM in the test with MDA-N and 98.2 µM with K-562 leukemia.
For the molecule `Cc1ccc(CS(=O)(=O)C/N=c2\sc3ccccc3nc2/C=C(\O)c2ccc(Cl)cc2)cc1`, the TGI in the test on OVCAR-8 ovarian, in the test on OVCAR-3 ovarian, in the test with 786-0 renal, with MALME-3M melanoma, in the test on T-47D breast and in the test with TK-10 renal was over 10 µM throughout. Further, the TGI with COLO 205 colon, in the test with DU-145 prostate, with SK-MEL-5 melanoma, in the test with UACC-62 melanoma, in the test on MDA-N and in the test with K-562 leukemia was over 10 µM throughout.
For the molecule `N#CC1CCN2N=C(c3ccccc3)SC12c1ccccc1` (centres undefined), the TGI in the test on OVCAR-8 ovarian, with 786-0 renal, in the test with MALME-3M melanoma, with T-47D breast, in the test with TK-10 renal and with COLO 205 colon was over 100 µM in each case. Also, the TGI in the test with HL-60(TB) leukemia is over 100 µM; in the test on SK-MEL-2 melanoma, over 100 µM; in the test with SK-MEL-5 melanoma, over 100 µM; in the test with UACC-62 melanoma, 29.5 µM; in the test with NCI-H226 lung, over 100 µM; with UO-31 renal, over 100 µM. The TGI in the test with MDA-N and in the test on K-562 leukemia was over 100 µM each time.
For `CC(C)[Si](OC1=C(C(=O)N(C)c2ccccc2Cl)CCC1)(C(C)C)C(C)C`, the TGI in the test with OVCAR-8 ovarian came to 31 µM; in the test with OVCAR-3 ovarian, 31.2 µM; in the test on 786-0 renal it was 48.9 µM; with MALME-3M melanoma, 34.6 µM; in the test on T-47D breast, 47.1 µM; with TK-10 renal it was 39.1 µM. Also, the TGI in the test on COLO 205 colon worked out at 34.3 µM; in the test on DU-145 prostate, 44.3 µM; in the test on SK-MEL-5 melanoma, 41.2 µM; in the test on NCI-H226 lung it was 40.3 µM; in the test on UO-31 renal, 29.4 µM; with MDA-N, 38.8 µM.
Take `COP1(=O)NCc2ncccc2O1` (centres undefined): the TGI with OVCAR-8 ovarian, in the test with OVCAR-3 ovarian, in the test with 786-0 renal, with T-47D breast, with COLO 205 colon and in the test on DU-145 prostate was over 100 µM in each case. Further, the TGI in the test with SK-MEL-2 melanoma, in the test on SK-MEL-5 melanoma, with UACC-62 melanoma, in the test on NCI-H226 lung, in the test with UO-31 renal and in the test on MDA-N was over 100 µM in each case. This molecule also showed a TGI in the test on K-562 leukemia of over 100 µM.
Take `Cc1c(C(=O)O)c2cc3ccccc3cc2c(=O)n1C`: the TGI with OVCAR-8 ovarian, in the test on OVCAR-3 ovarian, with 786-0 renal, in the test with MALME-3M melanoma, with T-47D breast and in the test on TK-10 renal was over 10 µM throughout. Besides, the TGI in the test on HL-60(TB) leukemia, in the test with SK-MEL-2 melanoma, with UACC-62 melanoma, with NCI-H226 lung, in the test with UO-31 renal and with MDA-N was over 10 µM each time.
`Cc1ccc(-n2c(Cn3nnc(-c4cccnc4)n3)nn(C3OC(COC(=O)c4ccccc4)C(OC(=O)c4ccccc4)C3OC(=O)c3ccccc3)c2=S)cc1` (centres undefined): the TGI with OVCAR-8 ovarian, in the test on OVCAR-3 ovarian, in the test on 786-0 renal, in the test on MALME-3M melanoma, with T-47D breast and with TK-10 renal was over 100 µM each time. The TGI in the test with COLO 205 colon, in the test with DU-145 prostate, in the test with SK-MEL-2 melanoma, with SK-MEL-5 melanoma, in the test on UACC-62 melanoma and in the test on NCI-H226 lung was over 100 µM throughout. Besides, the TGI in the test with UO-31 renal, with MDA-N and in the test with K-562 leukemia was over 100 µM throughout.
Turning to `CCCCCC(=O)OCC1(CO)C/C(=C\CC(C(C)C)C(C)C)C(=O)O1` (centres undefined), the TGI with OVCAR-8 ovarian is 76.2 µM; in the test with OVCAR-3 ovarian it was over 100 µM; with 786-0 renal, over 100 µM; in the test with MALME-3M melanoma, over 100 µM; in the test on T-47D breast, over 100 µM; in the test on TK-10 renal, over 100 µM. Besides, the TGI was 53.5 µM with COLO 205 colon; over 100 µM in the test with DU-145 prostate; over 100 µM in the test on SK-MEL-2 melanoma; over 100 µM in the test with SK-MEL-5 melanoma; over 100 µM in the test with UACC-62 melanoma; over 100 µM in the test with NCI-H226 lung. For the same molecule, the TGI in the test on UO-31 renal is over 100 µM; in the test on MDA-N, over 100 µM; with K-562 leukemia, 77.5 µM.
On to `CSc1nc2c(N)ncnc2n1C`, for which the TGI in the test on OVCAR-8 ovarian, with OVCAR-3 ovarian, in the test on 786-0 renal, in the test on MALME-3M melanoma, with T-47D breast and with TK-10 renal was over 100 µM in each case. Moreover, the TGI with COLO 205 colon, in the test on DU-145 prostate, with SK-MEL-2 melanoma, with SK-MEL-5 melanoma, with UACC-62 melanoma and in the test with NCI-H226 lung was over 100 µM throughout. In addition, the TGI in the test with UO-31 renal, with MDA-N and in the test on K-562 leukemia was over 100 µM throughout.
With `CC(C)N=C(NC#N)NS(=O)(=O)c1cnccc1Nc1ccc(Cl)cc1`, the TGI in the test on OVCAR-8 ovarian, in the test with OVCAR-3 ovarian, in the test with 786-0 renal, in the test on MALME-3M melanoma, with T-47D breast and with TK-10 renal was over 100 µM in each case. Also, the TGI in the test with COLO 205 colon, in the test with DU-145 prostate, in the test on SK-MEL-2 melanoma, in the test on SK-MEL-5 melanoma, in the test on UACC-62 melanoma and in the test on NCI-H226 lung was over 100 µM each time. Moreover, the TGI with UO-31 renal, with MDA-N and in the test on K-562 leukemia was over 100 µM in each case.
As for `CCn1c(=O)ccc2ccc(N(CCO)CCO)nc21`, the TGI in the test with OVCAR-8 ovarian, in the test on OVCAR-3 ovarian, in the test with 786-0 renal, in the test on MALME-3M melanoma, in the test on T-47D breast and with TK-10 renal was over 100 µM each time. The TGI with COLO 205 colon, in the test on DU-145 prostate, in the test on SK-MEL-2 melanoma, with SK-MEL-5 melanoma, in the test on UACC-62 melanoma and in the test with NCI-H226 lung was over 100 µM in each case. For the same molecule, the TGI with UO-31 renal, with MDA-N and with K-562 leukemia was over 100 µM each time.
As for `C=C(C)[C@@]1(O)CCC[C@H]1NC(=O)OC(C)(C)C`, the TGI in the test with OVCAR-8 ovarian, in the test with OVCAR-3 ovarian, in the test on 786-0 renal, with MALME-3M melanoma, with T-47D breast and with TK-10 renal was over 100 µM in each case. For the same molecule, the TGI with COLO 205 colon, with DU-145 prostate, with SK-MEL-2 melanoma, in the test with SK-MEL-5 melanoma, with NCI-H226 lung and in the test with UO-31 renal was over 100 µM throughout. Also, the TGI in the test on MDA-N is over 100 µM.
